“Also recorded” adds a separate entry of the source. Ends that are not written are not given here. * marks the point of attachment. Biotin = O=C1N[C@H]2[C@H](CS[C@H]2CCCCC(=O)*)N1
B1: GAL4 DNA-BD fusion of Band 3 peptide 5BC (amino acids 731-761) in pGBKT7 (other)
peptide: SVTHANALTVMGKASTPGAAAQIQEVKEQRI
modifications: not fully specified (N-terminus); also: GAL4 DNA-BD fusion in pGBKT7, fused part not given here
B2: GAL4 DNA-BD fusion of Band 3 peptide 6AB (amino acids 807-842) in pGBKT7 (other)
peptide: DRILLLFKPPKYHPDVPYVKRVKTWRMHLFTGIQII
modifications: not fully specified (N-terminus); also: GAL4 DNA-BD fusion in pGBKT7, fused part not given here
B3: GAL4 DNA-BD fusion of Band 3 peptide 5ABC (amino acids 720-761) in pGBKT7 (other)
peptide: GMPWLSATTVRSVTHANALTVMGKASTPGAAAQIQEVKEQRI
modifications: not fully specified (N-terminus); also: GAL4 DNA-BD fusion in pGBKT7, fused part not given here
notes: also called BD-5ABC; pGBKT7-5ABC

Experiments:
human RBC ghost proteins = assay: Blot overlay assay, RBC ghost proteins; format: binding; conditions: biotinylated peptides each 400 μM
Method: (§1) Naturally released P. falciparum (3D7 strain) merozoites isolated as described (Mrema, J. E., et al., Exp Parasitol 54:285-295, 1982) and human RBC ghosts prepared as described (Dodge, J. T., et al., Arch Biochem Biophys 100:119-130, 1963) were subjected to SDS-PAGE. Proteins transferred onto nitrocellulose membrane were blocked overnight with 10% milk, 2% BSA, TBST (0.05%) at 4° C. After washing (4×) in TBST, the blot was incubated with biotinylated Band 3 peptides (each 400 μM) in TBST (0.025%), 10 mM phosphate buffer (pH 8.0), 60 mM KCl for 4 h at RT. After extensive washing, the blot was incubated with neutravidin-linked horseradish peroxidase (1:21,000, Pierce Chemical Co., Rockford, Ill.) in TBST (0.05%) with 2% BSA for 5-6 h at RT. After washing the blot with TBST (5×) and TBS (2×), bound peptides were visualized by the ECL method (Pierce Chemical Co.).
(§2) A binding study was carried out between the synthetic Band 3 peptides and merozoite proteins to understand the mechanism by which Band 3 peptides 5B, 5C, and 6A inhibit the parasite invasion of RBCs. P. falciparum merozoites essentially free of contaminating RBC membrane components were isolated (FIG. 3A), and total merozoite proteins were separated by SDS-PAGE (FIG. 3B). […] This was confirmed by Western blot using anti-spectrin and anti-Band 3 antibodies (not shown). […] Approximate molecular masses of these merozoite proteins are 175, 150, 125, 52, 48, 42, and 35 kDa (shown by arrowheads).

[1] = system: P. falciparum (3D7 strain) merozoite proteins; assay: Blot overlay assay, merozoite proteins; format: binding, Plasmodium falciparum; conditions: biotinylated peptides each 400 μM
Method: as §1, §2

[2] = system: P. falciparum intraerythrocytic growth; assay: Growth inhibition assay by 3H-hypoxanthine incorporation method; format: cell-based, Plasmodium falciparum; conditions: 400 μM peptide; vs no peptide control
Method: (§3) FIG. 2 depicts the inhibition of P. falciparum invasion into RBCs by human Band 3 peptides. […] Ectodomains are shown as boxes in the three models. (i) Overlapping 12 to 20-residue peptides shown in solid bars were prepared according to the putative ectodomain boundaries. (ii) Casey model (Fujinaga, J., et al., J Biol Chem 274:6626-6633, 1999). (iii) Reithmeier model (Popov, M., et al., J Biol Chem 272:18325-18332, 1997). (iv) Sherman model (Crandall, I., et al., Parasitology 108:257-267, 1994). […] Artemisinin (25 μM) and no peptide samples were positive and negative controls, respectively. FIG. 2C is a bar graph depicting of invasion inhibition assay by ^3H-hypoxanthine incorporation method. Effects of Band 3 peptides relative to the control sample (no peptide) are shown. Artemisinin (50 μM) and unrelated peptide derived from dematin were used as positive and negative control, respectively. FIG. 2D is a bar graph that depicts results of a growth inhibition assay by ^3H-hypoxanthine incorporation method. Effects of Band 3 peptides relative to the control sample (no peptide) are shown. In all inhibition assays, mean parasitemia from three experiments was calculated with standard error. DMSO background was corrected when necessary. Student's t test was used to compare with the control (no peptide). FIG. 2E is a table providing a summary of net charge and pI for Band 3 peptides.
(§4) To investigate the possible role of Band 3 as a host receptor in P. falciparum invasion into RBCs, we employed a peptide scanning strategy based on recent topology models of human erythroid Band 3 (FIG. 2A). Synthetic peptides were derived from the putative ectodomains of human RBC Band 3, and their ability to inhibit the P. falciparum (3D7 strain) invasion of human RBCs in culture was tested using both visual counting (Schlichtherle, M., et al., Methods in Malaria Research 2000) and ^3H-hypoxanthine incorporation (Chulay, J. D., et al., Exp Parasitol 55:138-146, 1983) methods. […] Inhibition by these four Band 3 peptides was concentration dependent (50, 200, 500, and 1000 μM peptides, data not shown).

GST-MSP138 = assay: Solution-binding assay, GST-MSP138 on beads; set-up: species or system P. falciparum (FCB1 strain)
Text: MSP138 (SEQ ID NO:33), MSP142 (SEQ ID NO:34), and MSP119 (SEQ ID NO:35) genes were amplified from a P. falciparum (FCB1 strain) cDNA library (J. B. Dame) by PCR using the following primers: 5′-[…] (SEQ ID NO: 14, MSP138, sense, 3121-3133, Xhol), 5′-[…] (SEQ ID NO:15, MSP138, antisense, 4200-4193, NotI), 5′-[…] (SEQ ID NO:16, MSP142, sense, 4201-4218, XhoI), 5′-[…] (SEQ ID NO:17, MSP142, antisense, 5334-5321 NotI), 5′-[…]: (SEQ ID NO:18, MSP119, sense, 4993-5009 BamHI), 5′-[…] (SEQ ID NO:19, MSP119, antisense, 5334-5318, EcoRI). Similar cDNA libraries as well as CDNA pools are available to the public from MR4, ATCC (www.malaria.atcc.org).
Primers: 5′-[…] […] (SEQ ID NO:26, 6AB, antisense, 2640-2620, EcoRI).

[3] = system: P. falciparum (3D7 strain) invasion of human RBCs; assay: Invasion inhibition assay by 3H-hypoxanthine incorporation method; format: cell-based, Plasmodium falciparum; conditions: for inhibition of invasion, 3H-hypoxanthine uptake assay: 400 μM peptide, vs other Band 3 peptides, no peptide and unrelated peptide; for IC50: 3H-hypoxanthine incorporation method, mean of three experiments±standard error, read-out: IC50 (50% inhibition in the parasite invasion of RBCs)
Method: as §3, §4
The IC50 values for peptides 5A and 5B could not be estimated because a saturable peptide concentration could not be reached with a low DMSO (≦1%) concentration. It is noteworthy that our peptides 5A, 5B, 5C, and 6A were designed by randomly dividing the two ectodomains of Band 3, and thus these peptides may not necessarily represent Band 3 amino acid compositions having the best inhibitory property. […] These findings are consistent with the view that Band 3 functions as an important receptor in the parasite invasion of RBCs.

[4] = system: P. falciparum (3D7 strain) invasion of human RBCs; assay: Invasion inhibition assay by visual counting method; format: cell-based, Plasmodium falciparum; conditions: for inhibition of invasion, visual counting assay: 500 μM peptide, ring stage parasites in Giemsa-stained thin smears, vs other Band 3 peptides and no peptide control; for inhibition of the invasion of Plasmodium falciparum malaria parasite into human erythrocytes in vitro: peptide scanning experiment, compared to control sample
Method: as §3
Plasmodium parasite cultures were maintained at 37° C. as described by Klotz, F. W., et. al., J Exp Med 165:1713-1718, 1987. To determine infection in RBCs, rings were counted from RBCs in Geimsa-stained thin smears.
as §4

[5] = target: T1, SV40 large T-antigen fused to GAL4 AD (pGADT7 vector), two-hybrid control (UniProt P03070 86-708); assay: yeast two-hybrid assay
T1 construct: Kit control; also called pGADT7-T
T1 sequence (P03070 86-708 limits assumed): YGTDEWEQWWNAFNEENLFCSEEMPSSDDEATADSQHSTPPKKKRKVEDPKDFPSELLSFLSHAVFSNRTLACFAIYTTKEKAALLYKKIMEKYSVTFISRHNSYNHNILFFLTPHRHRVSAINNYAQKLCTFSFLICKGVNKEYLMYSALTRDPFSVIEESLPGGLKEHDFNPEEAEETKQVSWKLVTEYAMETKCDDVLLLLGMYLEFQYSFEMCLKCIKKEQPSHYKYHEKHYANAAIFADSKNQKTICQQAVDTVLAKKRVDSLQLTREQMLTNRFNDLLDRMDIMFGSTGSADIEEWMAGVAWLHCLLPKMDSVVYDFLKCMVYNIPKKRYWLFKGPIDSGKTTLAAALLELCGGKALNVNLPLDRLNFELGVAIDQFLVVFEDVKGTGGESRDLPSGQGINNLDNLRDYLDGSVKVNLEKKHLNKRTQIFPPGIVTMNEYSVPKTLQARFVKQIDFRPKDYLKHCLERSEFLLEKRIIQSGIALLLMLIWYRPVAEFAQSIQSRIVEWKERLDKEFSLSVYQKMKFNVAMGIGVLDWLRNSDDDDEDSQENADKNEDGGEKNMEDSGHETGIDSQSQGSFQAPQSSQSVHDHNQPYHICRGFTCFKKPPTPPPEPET
Text: For the yeast two-hybrid assay, the co-transformation method was used to analyze the protein interaction in yeast AH109 cells using SD/-Leu/-Trp selection plates.

| Molecule | binding to merozoite proteins, blot overlay [1] | effect on intraerythrocytic growth of the parasite (3H-hypoxanthine uptake) [2] | inhibition of invasion, 3H-hypoxanthine uptake assay [3] | inhibition of invasion, visual counting assay [4] | other results |
| --- | --- | --- | --- | --- | --- |
| 2: Synthetic human Band 3 peptide, amino acid 477-491, N-terminal biotin tag (Biotin-SFCETNGLEYIVGRV; UniProt P02730 477-491, looked up, fragment) [Peptide 2] | did not show significant binding | mild reduction in 3H-hypoxanthine uptake | – | – | binding to RBC ghost proteins, blot overlay (human RBC ghost proteins): non-specific bindings |
| 3A: Synthetic human Band 3 peptide, amino acid 538-557, N-terminal biotin tag (Biotin-SKLIKIFQDHPLQKTYNYNV; UniProt P02730 538-557, looked up, fragment) [Peptide 3A] | did not show significant binding | – | – | – | binding to RBC ghost proteins, blot overlay (human RBC ghost proteins): non-specific bindings |
| 4A: Synthetic human Band 3 peptide, amino acid 623-642, N-terminal biotin tag (Biotin-FIQDTYTQKLSVPDGFKVSN; UniProt P02730 623-642, looked up, fragment) [Peptide 4A] | did not show significant binding | – | – | – | binding to RBC ghost proteins, blot overlay (human RBC ghost proteins): non-specific bindings |
| 5BC: Recombinant human Band 3 peptide, amino acid 731-761, expressed as GST or GAL4 DNA-BD fusion (SVTHANALTVMGKASTPGAAAQIQEVKEQRI; also: expressed as GST or GAL4 DNA-BD fusion) [Peptide 5BC] | – | – | – | – | binding to GST-MSP138 on beads (GST-MSP138; 32P-labeled 5BC 21, 42, 84, 168 μM): concentration-dependent manner; Kd (GST-MSP138; 32P-labeled peptide, pH 7.4, 25° C., 3.5 h, C-terminal truncated GST-MSP138): 67 µM |
| DRILLLFKPPKYHPDVPYVK [Peptide 6A, Synthetic human Band 3 peptide, amino acid 807-826] | specifically bind | did not affect the intraerythrocytic growth of the parasite | strong inhibition | significant levels of inhibition of invasion | IC50 [3]: 316 ± 45 µM; inhibition of the invasion of Plasmodium falciparum malaria parasite into human erythrocytes in vitro ([4]; listed as B36A): inhibited the invasion; also recorded: highest inhibition |
| GKASTPGAAAQIQEVKEQRI [Peptide 5C, Synthetic human Band 3 peptide, amino acid 742-761] | specifically bind | did not affect the intraerythrocytic growth of the parasite | moderate but significant levels of inhibition of invasion | significant levels of inhibition of invasion | IC50 [3]: 591 ± 131 µM; inhibition of the invasion of Plasmodium falciparum malaria parasite into human erythrocytes in vitro ([4]; listed as B35C): inhibited the invasion; also recorded: highest inhibition |
| GMPWLSATTVRSVTHANALT [Peptide 5A] | – | mild reduction in 3H-hypoxanthine uptake | – | significant levels of inhibition of invasion | inhibition of the invasion of Plasmodium falciparum malaria parasite into human erythrocytes in vitro [4]: inhibited the invasion |
| Peptide 1: Synthetic human Band 3 peptide, amino acid 424-435, N-terminal biotin tag (Biotin-GGLLGEKTRNQM; UniProt P02730 424-435, looked up, fragment) | – | mild reduction in 3H-hypoxanthine uptake | moderate but significant levels of inhibition of invasion | – | – |
| SVTHANALTVMGKASTPGAA [Peptide 5B, Synthetic human Band 3 peptide, amino acid 731-750] | – | did not affect the intraerythrocytic growth of the parasite | moderate but significant levels of inhibition of invasion | significant levels of inhibition of invasion | inhibition of the invasion of Plasmodium falciparum malaria parasite into human erythrocytes in vitro [4]: inhibited the invasion |
| B1 | – | – | – | – | binding result [5]: no binding |
| B2 | – | – | – | – | binding result [5]: no binding |
| B3 | – | – | – | – | binding result [5]: no binding |

From US20030059436A1, “Band 3 antigenic peptides, malaria polypeptides and uses thereof” (priority 2001, published 2003)
